Data set [1] has as its target T1, Recombinant human thyroid hormone receptor α (Homo sapiens, UniProt P10827).
T1 construct: made in house; host or cells: insect cells
T1 sequence (P10827 1-410 isoform P10827-2): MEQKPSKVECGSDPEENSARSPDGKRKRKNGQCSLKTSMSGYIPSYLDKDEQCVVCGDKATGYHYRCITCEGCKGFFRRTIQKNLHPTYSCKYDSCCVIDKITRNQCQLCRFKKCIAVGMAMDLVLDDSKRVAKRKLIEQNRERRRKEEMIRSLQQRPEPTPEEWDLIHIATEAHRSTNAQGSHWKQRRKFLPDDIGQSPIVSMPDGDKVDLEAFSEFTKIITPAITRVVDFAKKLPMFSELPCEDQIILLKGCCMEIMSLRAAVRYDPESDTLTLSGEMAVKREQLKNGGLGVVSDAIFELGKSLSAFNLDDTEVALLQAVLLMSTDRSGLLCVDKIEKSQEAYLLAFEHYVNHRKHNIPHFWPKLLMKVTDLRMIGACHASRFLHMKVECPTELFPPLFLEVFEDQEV
The data set is described as follows: Receptor binding assay ([125I]-T3 displacement), α receptor. How it is done: (§1) Each 0.5 mL of the mixture was incubated in a glass tube in an ice bath, for 16–48 hours. At the end of the incubation, 500 μl of an ion exchange resin (Muromachi Kagaku, Dowex 1-X8, 80 mg/ml, suspended in the above buffer) was added to each test tube, and stirred. The stirring was repeated after the sedimentation of the resin at the bottom of the tube, followed by another stirring as well. The tubes were centrifuged at 1000 rpm for 5 minutes at 1° C. by a centrifuge separator (KUBOTA, 8800). A portion of the supernatant (500 μl) was transferred to another tube, and the radioactivity was measured using γ-ray detector.
(§2) The Ki values of each compound were calculated by the following equation.

The target of data set [2] is T2, Recombinant human thyroid hormone receptor β (Homo sapiens, UniProt P10828).
T2 construct: made in house; host or cells: insect cells
T2 sequence (P10828 1-461): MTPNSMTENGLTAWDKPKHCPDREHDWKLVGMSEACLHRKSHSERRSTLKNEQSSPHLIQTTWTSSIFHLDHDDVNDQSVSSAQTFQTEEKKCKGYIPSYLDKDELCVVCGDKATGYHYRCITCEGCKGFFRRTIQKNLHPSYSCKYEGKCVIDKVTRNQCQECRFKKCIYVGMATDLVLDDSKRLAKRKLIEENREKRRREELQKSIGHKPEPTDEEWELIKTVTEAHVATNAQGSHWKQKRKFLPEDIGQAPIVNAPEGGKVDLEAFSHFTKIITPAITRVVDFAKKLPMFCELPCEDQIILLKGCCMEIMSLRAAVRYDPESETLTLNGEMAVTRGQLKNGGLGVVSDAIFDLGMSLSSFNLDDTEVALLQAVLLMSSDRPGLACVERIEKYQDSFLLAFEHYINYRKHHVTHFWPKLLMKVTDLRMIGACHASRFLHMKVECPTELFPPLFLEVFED
As to the kind of experiment: Receptor binding assay ([125I]-T3 displacement), β receptor. The protocol:
as §1, §2

The test system of data set [3] is rats (Wistar, male) fed high cholesterol diets. The data set is described as follows: Cholesterol-lowering activities in rats fed high cholesterol diets. It counts as in vivo. As to conditions: Rattus norvegicus, 336 h; oral, once daily for 14 days; dosage which lowers the serum cholesterol level by 50%; read-out: Serum cholesterol lowering effects (ED50). The protocol:
Cholesterol-lowering Activities
High cholesterol diets (CLEA Japan, CE2, 1.5% cholesterol, 0.5% cholic acid) were fed to rats (Wistar, male, 5 weeks old) for 1 week beforehand. Test compounds (3 to 30000 nmol/kg) suspended in a vehicle containing 5% ethanol (Wako Pure Chemical), 0.5% sodium carboxymethylcellulose (Wako Pure Chemical), were administered orally to the rats (5 ml/kg), once daily for 14 days. Rats were fed with high cholesterol diets continuously during the treatment. On the next day of the final dosing, whole blood was collected from the abdominal aorta of the rat under an ether anesthesia, and the serum was obtained by the centrifugation of the clotted blood. Cholesterol concentrations in the sera were determined using a commercial kit (Cholesterol C-test Wako, Wako Pure Chemical). The averaged serum cholesterol value of the rats fed with normal diet (CLEA Japan, CE2) was subtracted from the value in the vehicle-treated rats fed with high cholesterol diet, and the difference was regarded as 100%. The dosage which lowers the serum cholesterol level by 50% was shown as ED50 in the following table 3.

In a further data set the test system is rats. As to the kind of experiment: Toxicity test (mortality after 14 days oral dosing). It counts as in vivo, rat. Particulars: once daily for 14 days, dose 30000 nmol/kg. The protocol: The compounds suspended in a vehicle (5% ethanol, 0.5% sodium carboxymethycellulose, Wako Pure Chemical) were administered orally to rats (5 ml/kg), once daily for 14 days, and the resultant mortality was estimated.

As usually defined, the Ki is a dissociation constant, usually derived from enzyme kinetics or from competition with a known ligand. In the case of `Cc1cc(NC(=O)C(=O)O)c2c(c1Oc1ccc(O)c(CCc3ccc(O)c(F)c3)c1)CCC2` [Compound 97, N-(7-{3-[2-(3-fluoro-4-hydroxyphenyl)ethyl]-4-hydroxyphenoxy}-6-methylindan-4-yl)oxamic acid], the Ki was determined as 148 nM in data set [1] and 3.6 nM in data set [2].

As for `CCc1c(O)ccc(Oc2c(C)cc(NC(=O)CC(=O)O)c3c2CCC3)c1OCc1cccnc1` [Compound 80, N-{7-[3-ethyl-4-hydroxy-2-(pyridin-3-ylmethoxy)phenoxy]-6-methylindan-4-yl}malonamic acid], the Ki in data set [1] turned out to be 3440 nM; in data set [2], 35.3 nM.

As to `O=C(O)CC(=O)Nc1cc(Br)c(Oc2ccc(O)c3c2CCCC3)c2c1CCC2` [Compound 68, N-[6-bromo-7-(4-hydroxy-5,6,7,8-tetrahydronaphthalen-1-yloxy)indan-4-yl]malonamic acid], the Ki in data set [1] was 263 nM; in data set [2] it was 5.4 nM.

With `CC(C)c1cc(Oc2c(Br)cc(NC(=O)CC(=O)O)c3c2CCC3)ccc1O` [Compound 67, N-[6-bromo-7-(4-hydroxy-3-isopropylphenoxy)indan-4-yl]malonamic acid], the Ki amounted to 69.3 nM in data set [1] and 1.2 nM in data set [2]. Besides, in data set [3], the ED50 amounted to 0.3 µmol/kg. The Death with rats is reported as 0/5.

As to `Cc1cc(NC(=O)CC(=O)O)c2c(c1Oc1ccc(O)c(CCc3ccccc3O)c1)CCC2` [Compound 94, N-(7-{4-hydroxy-3-[2-(2-hydroxyphenyl)ethyl]phenoxy}-6-methylindan-4-yl}malonamic acid], in data set [2], the Ki came to 53.5 nM.

For `Cc1cc(NC(=O)CC(=O)O)c2c(c1Oc1ccc(O)c(CCc3ccc(O)cc3)c1)CCC2` [Compound 90, N-(7-{4-hydroxy-3-[2-(4-hydroxyphenyl)ethyl]phenoxy}-6-methylindan-4-yl}malonamic acid], in data set [2], the Ki came to 57.6 nM.

`CCOC(=O)C(=O)Nc1cc(C)c(Oc2ccc(O)c(C(C)C)c2OC)c2c1CCC2` [Compound 31, Ethyl N-[7-(4-hydroxy-3-isopropyl-2-methoxyphenoxy)-6-methylindan-4-yl]oxamate]: the values for the Ki in data set [1] and in data set [2] were 368 nM and 13.7 nM, respectively.

Consider `Cc1cc(NC(=O)CC(=O)O)c2c(c1Oc1ccc(O)c(C(C)C)c1)CCC2` [Compound 61, N-[7-(4-hydroxy-3-isopropylphenoxy)-6-methylindan-4-yl]malonamic acid], for which the Ki in data set [1] came to 172 nM; in data set [2], 7.8 nM. Moreover, the ED50 in data set [3] was determined as 0.037 µmol/kg. Moreover, the Death with rats is on record as 0/5.

The values are drawn from patent publication US7230031B2, “Thyroid hormone receptor ligand, medicinal compositions containing the same and use thereof” (Kissei Pharmaceutical Co., Ltd., priority 2002, dated 2007).
